# Results published in ChEMBL document CHEMBL5696442, “Discovery of type II inhibitors of TGFβ-activated kinase 1 (TAK1) and mitogen-activated protein kinase kinase kinase kinase 2 (MAP4K2)” (J Med Chem, 2015).
# Calls of active or inactive are those of the source. The calls are words filed in the database; no cut-off is given here.
# Tests used:
# [1] = target: T1, Serine/threonine-protein kinase LATS1 (Homo sapiens) (UniProt O95835); assay: Inhibition of LATS1 (unknown origin) at 10 uM by Ambit Kinomescan binding assay
# T1 sequence (whole entry): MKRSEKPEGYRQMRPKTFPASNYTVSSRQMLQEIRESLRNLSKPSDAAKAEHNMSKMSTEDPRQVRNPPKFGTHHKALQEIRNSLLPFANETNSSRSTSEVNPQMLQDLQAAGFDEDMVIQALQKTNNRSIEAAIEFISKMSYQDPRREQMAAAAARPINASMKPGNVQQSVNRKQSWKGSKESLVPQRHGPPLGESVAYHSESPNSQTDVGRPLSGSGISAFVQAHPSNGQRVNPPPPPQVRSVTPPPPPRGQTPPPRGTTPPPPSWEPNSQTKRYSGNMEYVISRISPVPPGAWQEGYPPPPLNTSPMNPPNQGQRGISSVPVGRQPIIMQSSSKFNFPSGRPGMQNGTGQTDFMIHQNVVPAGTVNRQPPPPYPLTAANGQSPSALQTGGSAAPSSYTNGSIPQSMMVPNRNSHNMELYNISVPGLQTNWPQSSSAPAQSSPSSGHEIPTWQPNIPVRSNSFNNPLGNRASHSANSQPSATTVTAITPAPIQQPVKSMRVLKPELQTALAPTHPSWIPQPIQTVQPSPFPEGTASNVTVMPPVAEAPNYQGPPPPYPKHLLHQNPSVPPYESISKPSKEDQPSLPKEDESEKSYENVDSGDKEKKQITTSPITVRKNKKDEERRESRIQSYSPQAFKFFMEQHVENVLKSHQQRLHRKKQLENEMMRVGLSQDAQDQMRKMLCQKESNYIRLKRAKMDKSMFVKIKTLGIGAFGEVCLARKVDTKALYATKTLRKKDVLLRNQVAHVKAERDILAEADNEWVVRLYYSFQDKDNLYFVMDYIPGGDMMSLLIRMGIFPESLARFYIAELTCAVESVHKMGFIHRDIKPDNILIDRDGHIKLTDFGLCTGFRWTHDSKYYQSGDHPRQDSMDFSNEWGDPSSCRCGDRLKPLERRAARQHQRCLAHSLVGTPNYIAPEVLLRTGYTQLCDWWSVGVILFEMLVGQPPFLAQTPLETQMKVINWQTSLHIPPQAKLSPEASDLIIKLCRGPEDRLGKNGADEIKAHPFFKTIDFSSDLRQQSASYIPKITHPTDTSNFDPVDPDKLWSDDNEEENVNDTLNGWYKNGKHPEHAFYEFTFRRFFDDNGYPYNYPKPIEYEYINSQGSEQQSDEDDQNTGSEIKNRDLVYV
# [2] = target: Activin receptor type-1B (Homo sapiens) (UniProt P36896); assay: Inhibition of ACVR1B (unknown origin) at 10 uM by Ambit Kinomescan binding assay
# [3] = target: Serine/threonine-protein kinase SMG1 (Homo sapiens) (UniProt Q96Q15); assay: Inhibition of SMG1 ATP labeling site harbouring DTVTIHSVGGTITILPTKTKPK in human A-375 cells at 0.05 uM by KiNativ Profiling analysis relative to control; type: cell-based
# [4] = target: Interleukin-1 receptor-associated kinase 1 (Homo sapiens) (UniProt P51617); assay: Inhibition of IRAK1 Lys2 labeling site in human Huh-7 cell lysate at 1 uM by KiNativ Profiling analysis relative to control; type: subcellular
# Sequence of Interleukin-1 receptor-associated kinase 1 (Homo sapiens) (P51617 whole entry, looked up): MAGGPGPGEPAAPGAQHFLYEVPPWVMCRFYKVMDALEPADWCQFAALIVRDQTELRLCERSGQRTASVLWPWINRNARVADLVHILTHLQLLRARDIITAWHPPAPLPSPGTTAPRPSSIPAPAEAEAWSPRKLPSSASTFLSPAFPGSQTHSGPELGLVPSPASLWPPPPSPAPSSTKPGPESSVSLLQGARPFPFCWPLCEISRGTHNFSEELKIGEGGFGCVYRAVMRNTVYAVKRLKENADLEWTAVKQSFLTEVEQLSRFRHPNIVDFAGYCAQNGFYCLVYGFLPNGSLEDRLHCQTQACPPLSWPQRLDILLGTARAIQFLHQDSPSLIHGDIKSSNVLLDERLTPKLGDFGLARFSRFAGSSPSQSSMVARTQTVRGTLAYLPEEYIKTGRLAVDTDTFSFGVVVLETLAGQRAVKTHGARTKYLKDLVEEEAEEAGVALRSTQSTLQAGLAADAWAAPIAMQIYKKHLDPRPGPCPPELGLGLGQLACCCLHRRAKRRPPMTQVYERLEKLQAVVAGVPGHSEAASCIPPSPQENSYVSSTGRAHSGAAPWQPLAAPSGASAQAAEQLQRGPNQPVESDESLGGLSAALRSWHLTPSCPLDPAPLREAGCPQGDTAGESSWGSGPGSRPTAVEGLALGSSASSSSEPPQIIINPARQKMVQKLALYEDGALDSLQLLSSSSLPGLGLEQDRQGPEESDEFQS
# [5] = target: T2, Serine/threonine-protein kinase 3 (Homo sapiens) (UniProt Q13188); assay: Inhibition of MST2 Lys1 labeling site in human Huh-7 cells at 1 uM by KiNativ Profiling analysis relative to control; type: cell-based
# T2 sequence (whole entry): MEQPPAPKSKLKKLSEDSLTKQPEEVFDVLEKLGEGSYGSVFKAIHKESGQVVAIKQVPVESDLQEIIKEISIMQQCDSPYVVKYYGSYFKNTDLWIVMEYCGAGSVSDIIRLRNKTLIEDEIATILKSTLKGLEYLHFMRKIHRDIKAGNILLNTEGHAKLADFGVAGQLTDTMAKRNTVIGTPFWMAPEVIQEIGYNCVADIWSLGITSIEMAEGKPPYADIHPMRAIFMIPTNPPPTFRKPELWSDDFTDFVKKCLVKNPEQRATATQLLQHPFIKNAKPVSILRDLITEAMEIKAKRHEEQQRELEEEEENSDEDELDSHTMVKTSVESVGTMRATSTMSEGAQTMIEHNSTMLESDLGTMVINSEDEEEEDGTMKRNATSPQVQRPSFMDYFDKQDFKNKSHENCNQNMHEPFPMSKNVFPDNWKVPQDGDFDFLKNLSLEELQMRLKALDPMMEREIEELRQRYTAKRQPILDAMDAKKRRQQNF
# [6] = target: T3, Dual specificity mitogen-activated protein kinase kinase 6 (Homo sapiens) (UniProt P52564); assay: Inhibition of MAP2K6 ACT labeling site in human Huh-7 cell lysate at 1 uM by KiNativ Profiling analysis relative to control; type: subcellular
# T3 sequence (whole entry): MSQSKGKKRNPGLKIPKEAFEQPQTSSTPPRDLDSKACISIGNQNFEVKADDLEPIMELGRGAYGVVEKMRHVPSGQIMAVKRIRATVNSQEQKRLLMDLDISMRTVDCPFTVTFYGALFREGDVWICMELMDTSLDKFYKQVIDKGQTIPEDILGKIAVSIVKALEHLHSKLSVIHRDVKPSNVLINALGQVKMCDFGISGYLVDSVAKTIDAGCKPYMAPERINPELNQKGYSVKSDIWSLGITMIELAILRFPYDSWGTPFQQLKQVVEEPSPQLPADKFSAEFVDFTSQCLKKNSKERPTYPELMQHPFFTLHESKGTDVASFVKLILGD
# [7] = target: Serine/threonine-protein kinase ATR (Homo sapiens) (UniProt Q13535); assay: Inhibition of ATR ATP labeling site in human Huh-7 cell lysate at 1 uM by KiNativ Profiling analysis relative to control; type: subcellular
# [8] = target: Proto-oncogene tyrosine-protein kinase ROS (Homo sapiens) (UniProt P08922); assay: Inhibition of ROS1 (unknown origin) at 1 uM by Ambit Kinomescan binding assay relative to control
# Sequence of Proto-oncogene tyrosine-protein kinase ROS (Homo sapiens) (P08922 whole entry): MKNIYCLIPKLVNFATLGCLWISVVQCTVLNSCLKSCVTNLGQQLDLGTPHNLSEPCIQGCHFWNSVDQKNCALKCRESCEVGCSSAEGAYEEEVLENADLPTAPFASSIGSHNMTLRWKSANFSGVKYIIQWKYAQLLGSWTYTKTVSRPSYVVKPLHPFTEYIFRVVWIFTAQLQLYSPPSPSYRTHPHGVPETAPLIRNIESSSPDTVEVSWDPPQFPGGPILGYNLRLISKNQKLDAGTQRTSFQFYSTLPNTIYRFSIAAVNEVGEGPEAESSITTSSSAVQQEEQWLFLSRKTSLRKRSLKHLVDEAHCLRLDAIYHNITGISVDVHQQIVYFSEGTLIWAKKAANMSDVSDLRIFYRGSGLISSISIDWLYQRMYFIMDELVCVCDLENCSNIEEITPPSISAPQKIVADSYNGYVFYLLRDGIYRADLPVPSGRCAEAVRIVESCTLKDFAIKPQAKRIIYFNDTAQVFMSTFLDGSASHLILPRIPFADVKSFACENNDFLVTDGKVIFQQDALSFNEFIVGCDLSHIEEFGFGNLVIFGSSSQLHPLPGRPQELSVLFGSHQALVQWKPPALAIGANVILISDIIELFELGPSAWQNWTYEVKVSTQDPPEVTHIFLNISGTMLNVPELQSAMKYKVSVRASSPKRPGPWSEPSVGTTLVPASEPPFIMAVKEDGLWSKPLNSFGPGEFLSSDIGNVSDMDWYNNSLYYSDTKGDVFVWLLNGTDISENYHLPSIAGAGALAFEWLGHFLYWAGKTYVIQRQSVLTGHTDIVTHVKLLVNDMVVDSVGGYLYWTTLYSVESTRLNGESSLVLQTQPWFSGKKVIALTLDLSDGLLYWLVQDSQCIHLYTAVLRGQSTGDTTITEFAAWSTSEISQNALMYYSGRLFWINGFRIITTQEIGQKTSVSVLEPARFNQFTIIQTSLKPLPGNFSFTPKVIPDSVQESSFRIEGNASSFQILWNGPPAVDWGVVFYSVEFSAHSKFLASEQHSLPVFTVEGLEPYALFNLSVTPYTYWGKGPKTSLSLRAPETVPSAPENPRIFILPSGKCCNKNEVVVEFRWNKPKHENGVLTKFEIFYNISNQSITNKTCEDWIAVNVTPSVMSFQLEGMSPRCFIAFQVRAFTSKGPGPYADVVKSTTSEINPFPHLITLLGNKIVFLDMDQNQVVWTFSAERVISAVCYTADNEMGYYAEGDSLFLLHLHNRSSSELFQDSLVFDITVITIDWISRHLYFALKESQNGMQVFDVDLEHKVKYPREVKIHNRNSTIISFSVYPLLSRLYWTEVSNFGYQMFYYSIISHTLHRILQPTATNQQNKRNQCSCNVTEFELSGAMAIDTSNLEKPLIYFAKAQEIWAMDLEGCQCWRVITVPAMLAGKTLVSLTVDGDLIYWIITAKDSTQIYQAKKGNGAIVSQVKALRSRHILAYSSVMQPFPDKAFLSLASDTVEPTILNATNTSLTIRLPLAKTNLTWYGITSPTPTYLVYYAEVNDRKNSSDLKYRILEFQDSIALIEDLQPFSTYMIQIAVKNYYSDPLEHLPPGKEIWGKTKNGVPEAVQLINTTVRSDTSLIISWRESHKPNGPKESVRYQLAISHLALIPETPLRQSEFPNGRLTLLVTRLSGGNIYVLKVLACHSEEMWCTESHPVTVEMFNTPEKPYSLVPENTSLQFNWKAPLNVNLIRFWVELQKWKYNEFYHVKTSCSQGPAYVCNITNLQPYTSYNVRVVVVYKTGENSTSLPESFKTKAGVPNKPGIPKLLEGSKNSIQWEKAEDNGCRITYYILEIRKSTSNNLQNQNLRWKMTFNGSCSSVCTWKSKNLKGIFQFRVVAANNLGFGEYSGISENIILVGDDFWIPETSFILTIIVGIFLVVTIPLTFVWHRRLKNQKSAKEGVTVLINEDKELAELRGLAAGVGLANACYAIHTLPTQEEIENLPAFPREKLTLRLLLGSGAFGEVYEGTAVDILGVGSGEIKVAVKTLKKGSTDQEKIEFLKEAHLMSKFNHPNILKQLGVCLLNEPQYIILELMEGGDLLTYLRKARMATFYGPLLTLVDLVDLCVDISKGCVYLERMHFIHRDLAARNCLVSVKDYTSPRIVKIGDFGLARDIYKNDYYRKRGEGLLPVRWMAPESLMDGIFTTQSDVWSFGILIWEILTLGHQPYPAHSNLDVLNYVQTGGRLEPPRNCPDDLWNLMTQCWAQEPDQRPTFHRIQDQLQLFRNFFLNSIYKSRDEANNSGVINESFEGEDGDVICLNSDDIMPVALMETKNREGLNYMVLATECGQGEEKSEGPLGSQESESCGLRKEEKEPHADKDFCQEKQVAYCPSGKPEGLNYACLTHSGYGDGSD
# [9] = target: Serine/threonine-protein kinase 38-like (Homo sapiens) (UniProt Q9Y2H1); assay: Inhibition of NDR2 Lys2 labeling site in human A-375 cells at 0.5 uM by KiNativ Profiling analysis relative to control; type: cell-based
# Sequence of Serine/threonine-protein kinase 38-like (Homo sapiens) (Q9Y2H1 2-464 limits assumed): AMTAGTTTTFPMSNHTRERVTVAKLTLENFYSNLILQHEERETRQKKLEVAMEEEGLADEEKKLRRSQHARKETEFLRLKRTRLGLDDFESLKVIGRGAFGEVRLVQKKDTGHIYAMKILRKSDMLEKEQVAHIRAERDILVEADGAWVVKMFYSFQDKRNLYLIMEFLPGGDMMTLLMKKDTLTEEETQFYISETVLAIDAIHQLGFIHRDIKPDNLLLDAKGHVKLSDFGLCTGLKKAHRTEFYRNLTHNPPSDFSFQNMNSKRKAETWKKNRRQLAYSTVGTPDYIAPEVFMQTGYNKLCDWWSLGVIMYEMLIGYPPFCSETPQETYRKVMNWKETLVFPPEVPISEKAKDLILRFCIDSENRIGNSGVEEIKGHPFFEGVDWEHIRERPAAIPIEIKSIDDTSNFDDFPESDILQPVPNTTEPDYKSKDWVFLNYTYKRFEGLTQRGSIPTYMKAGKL
# [10] = target: Mitogen-activated protein kinase kinase kinase kinase 5 (Homo sapiens) (UniProt Q9Y4K4); assay: Inhibition of MAP4K5 (unknown origin) at 1 uM by Ambit Kinomescan binding assay relative to control; values are per cent of control
# Sequence of Mitogen-activated protein kinase kinase kinase kinase 5 (Homo sapiens) (Q9Y4K4 whole entry, looked up): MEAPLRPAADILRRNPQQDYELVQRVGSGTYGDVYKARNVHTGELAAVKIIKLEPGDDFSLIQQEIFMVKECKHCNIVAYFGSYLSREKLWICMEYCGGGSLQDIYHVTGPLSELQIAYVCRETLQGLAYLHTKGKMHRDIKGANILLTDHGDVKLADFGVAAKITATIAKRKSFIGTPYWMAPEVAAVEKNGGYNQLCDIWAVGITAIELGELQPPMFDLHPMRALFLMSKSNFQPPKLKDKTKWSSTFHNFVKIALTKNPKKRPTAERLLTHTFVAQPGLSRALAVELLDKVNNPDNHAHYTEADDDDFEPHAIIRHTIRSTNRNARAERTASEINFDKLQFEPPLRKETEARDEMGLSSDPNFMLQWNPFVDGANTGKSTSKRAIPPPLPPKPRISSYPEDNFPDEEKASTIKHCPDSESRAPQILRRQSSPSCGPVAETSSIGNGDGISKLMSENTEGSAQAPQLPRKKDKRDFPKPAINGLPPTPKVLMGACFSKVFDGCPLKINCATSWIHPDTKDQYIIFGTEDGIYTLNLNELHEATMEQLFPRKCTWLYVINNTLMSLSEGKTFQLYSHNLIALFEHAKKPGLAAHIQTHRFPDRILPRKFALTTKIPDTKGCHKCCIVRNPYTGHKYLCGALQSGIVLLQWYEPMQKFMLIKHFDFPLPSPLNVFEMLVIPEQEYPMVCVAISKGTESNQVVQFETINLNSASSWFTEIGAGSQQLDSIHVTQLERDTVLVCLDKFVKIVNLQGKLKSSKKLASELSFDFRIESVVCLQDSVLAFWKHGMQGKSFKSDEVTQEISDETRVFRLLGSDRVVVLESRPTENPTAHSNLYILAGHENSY
# [11] = target: Dual specificity tyrosine-phosphorylation-regulated kinase 1B (Homo sapiens) (UniProt Q9Y463); assay: Inhibition of DYRK1B (unknown origin) at 1 uM by Ambit Kinomescan binding assay relative to control; values are per cent of control
# Sequence of Dual specificity tyrosine-phosphorylation-regulated kinase 1B (Homo sapiens) (Q9Y463 whole entry, looked up): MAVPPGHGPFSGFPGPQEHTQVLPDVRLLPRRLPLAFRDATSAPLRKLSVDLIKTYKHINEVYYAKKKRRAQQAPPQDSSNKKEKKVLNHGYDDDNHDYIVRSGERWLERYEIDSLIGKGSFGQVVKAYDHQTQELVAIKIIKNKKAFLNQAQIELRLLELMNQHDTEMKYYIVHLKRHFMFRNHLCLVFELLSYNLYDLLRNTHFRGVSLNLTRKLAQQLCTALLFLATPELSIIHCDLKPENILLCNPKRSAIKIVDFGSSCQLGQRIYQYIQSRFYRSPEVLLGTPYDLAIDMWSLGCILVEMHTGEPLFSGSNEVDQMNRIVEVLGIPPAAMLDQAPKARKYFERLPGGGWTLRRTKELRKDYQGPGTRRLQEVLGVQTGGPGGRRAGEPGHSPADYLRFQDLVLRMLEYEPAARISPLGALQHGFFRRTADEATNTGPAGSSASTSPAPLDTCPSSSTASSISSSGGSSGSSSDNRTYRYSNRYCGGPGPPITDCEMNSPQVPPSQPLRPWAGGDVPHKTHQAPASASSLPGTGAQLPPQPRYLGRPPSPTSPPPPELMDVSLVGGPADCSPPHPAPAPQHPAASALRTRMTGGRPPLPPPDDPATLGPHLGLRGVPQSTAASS
smiles,measurement,setting,value
CCN1CCN(Cc2ccc(NC(=O)c3ccc(C)c(Oc4ccnc5[nH]ccc45)c3)cc2C(F)(F)F)CC1,inhibition,[1],inactive
same,inhibition,[2],inactive
same,inhibition,[3],2.3%
CNc1cc(Oc2cc(C(=O)Nc3cc(N4CCN(C)CC4)cc(C(F)(F)F)c3)ccc2C)ncn1,inhibition,[4],-6.9%
same,inhibition,[5],5.3%
same,inhibition,[6],-1.2%
same,inhibition,[7],5.1%
CCN1CCN(Cc2ccc(NC(=O)c3ccc(C)c(/C=C/c4cnc5[nH]ccc5c4OC)c3)cc2C(F)(F)F)CC1,inhibition,[8],100%
same,inhibition,[9],13.4%
same,residual activity,[10],7.2%
same,residual activity,[11],73%
